Measurements as given in patent publication US20200345686A1, “COMPOSITIONS AND METHODS FOR TREATING SKIN AND N[…] DISORDERS” (VCP IP HOLDINGS, LLC, LIMITED LIABILITY COMPANY DELAWARE, priority 2019, published 2020).

Columns and labels:
[1] = one study; cited from earlier work
[2] = mice; cited from earlier work
[3] = molecular target: cannabinoid receptor type-2 (CB2) (Homo sapiens, UniProt P34972); settings: cited from earlier work
[4] = mammals; cited from earlier work
[5] = Tape-strip test of THC absorbance into pig skin after topical application of salve; type: in vitro ADME
Experimental: A composition as described herein, e.g., in the form of a salve containing 1000 mg THC and carrier components was tested for its absorbance into skin following topical application to the skin of an animal (pig).
The absorbance testing procedure was performed as follows: the salve/lotion composition was applied topically to an area of the skin of a pig. Approximately 500 mg of the salve/lotion composition was applied to the area of skin using a gloved finger. The composition was applied to the skin by rubbing in a circular motion. The applied composition (salve composition) remained on the skin for different time periods, i.e., 10 minutes, 30 minutes, or 60 minutes, to allow the components of the composition, e.g., THC, to absorb into the skin. At the end of each time period, the area of the skin on which the composition had been applied was contacted with adhesive strips to test for the presence of residual cannabinoids, using an adhesive test tape (strip) method, e.g., as known in the art. (See, e.g., A. L. M. Ruela et al., 2016, BJPS, Vol. 52, No. 3:527-544; S. Zsiko et al., 2019, Sci. Pharm. (Review), Vol. 87, No. 19; doi:10.3390/scipharm87030019, 21 pages). In general, the tape-stripping technique is employed for analysis of penetration of an active or component (e.g., THC) into the stratum corneum. The procedure may be applied using an animal skin model, such as pig skin, e.g., a portion of skin removed from the animal. The procedure involved the sequence removal of cell layers of the stratum corneum by application of pieces (strips) of adhesive tape. The residues of the applied composition or formulation were removed from the skin surface, and the adhesive strip was applied by using pressure to ensure its adhesion to the skin. […]
FIG. 1 illustrates the results of the time course experiment following absorption testing 10 minutes after the composition comprising 1000 mg THC+carrier ingredients was applied to the animal's skin. Absorption or permeation of THC (ppm) per layer of skin (20 skin layers deep) was assessed using adhesive test strips. […]

cannabinoid receptor type-2 (CB2), sequence (P34972 whole entry, species assumed): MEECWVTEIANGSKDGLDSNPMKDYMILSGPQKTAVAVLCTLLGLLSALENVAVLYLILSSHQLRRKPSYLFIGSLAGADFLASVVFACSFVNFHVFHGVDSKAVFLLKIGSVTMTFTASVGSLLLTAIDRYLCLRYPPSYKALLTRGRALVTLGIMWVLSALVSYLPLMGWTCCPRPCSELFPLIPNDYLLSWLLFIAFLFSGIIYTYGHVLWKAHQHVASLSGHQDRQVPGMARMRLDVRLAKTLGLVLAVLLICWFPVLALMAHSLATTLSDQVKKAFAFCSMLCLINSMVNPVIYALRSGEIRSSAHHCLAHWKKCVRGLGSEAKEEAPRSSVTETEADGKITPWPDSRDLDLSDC

Q: With `C=C(C)[C@@H]1CCC(C)=C[C@H]1c1c(O)cc(CCCCC)cc1O` [CBD, (−)-trans-cannabidiol] as the compound, how does the “relieving pain and reducing inflammation compared with aspirin” value [1] read?
A: more effective than aspirin

Q: For `C=C1CCC=C(C)CCC2C1CC2(C)C` (stereo not shown) [Caryophyllene, 4,11,11-trimethyl-8-methylene-bicyclo[7.2.0]undec-4-ene], which anti-inflammatory effects [2] is on record?
A: significant cannabi-mimetic, anti-inflammatory effects

Q: What about the “activity at CB2” value [3] of the same compound?
A: selective agonist

Q: With `C/C1=C\CC/C(C)=C/CC(C)(C)/C=C/C1` [Humulene] as the compound, how does the anti-inflammatory activity [4] read?
A: effects similar to those of dexamethasone

Q: Which “presence of cannabinoids in the skin layers beneath the stratum corneum” value ([5]; 5 ppm limit of quantification (LOQ), pig skin tape strips) does the source give for `CCCCCc1cc(O)c2c(c1)OC(C)(C)[C@@H]1CCC(C)=C[C@@H]21` [THC, Δ^9-tetrahydrocannabinol] here?
A: inability to detect the presence of cannabinoids

Q: And the “location of THC component in skin” value ([5]; 60 minutes after topical application, salve containing 1000 mg THC + carrier, pig skin)?
A: the majority of the THC component had entered the stratum corneum

Q: What about the “time after topical application at which absorption or penetration of THC into the skin was highest” value ([5]; salve containing 1000 mg THC + carrier, approx. 500 mg applied to pig skin, 20 tape strips, HPLC) of the same compound?
A: 10 to 30 min
